Measurements: article PMC10254657, “Efficient pH-Responsive Nano-Drug Delivery System Based on Dynamic Boronic Acid/Ester Transformation” (Molecules, 2023)

Experiments:
DU145 cells = assay: In vitro cytotoxicity by MTT assay; assay type: cell-based; conditions: Homo sapiens, DU-145, 24 h (Figure 5 legend) / 48 h (method), read-out: half-maximal inhibitory concentrations (IC50)
Description: Human prostate cancer cells (DU145) were cultivated in DMEM supplemented with fetal bovine serum (FBS, 10%), streptomycin (100 μg/mL), and penicillin (100 units/mL). The cells were incubated in a humid atmosphere with 5% CO2 at 37 °C.
The in vitro cytotoxicities of PTX-loaded NPs were measured by MTT assays. Cells were seeded in 96-well plates (5000–8000 cells per well) and incubated at 37 °C. After 24 h, the medium was replaced with 180 μL of fresh medium, and the cells were treated with serial dilutions of PTX/PBA NPs, PTX/mPEG-PAL NPs, blank PBA NPs, and blank mPEG-PAL NPs (20 μL) for 48 h at 37 °C. At the end of the incubation, to each well was added […] of MTT solution (5 mg/mL in PBS). After 4 h, the MTT solution was removed from the wells, followed by the addition of supplementary DMSO (100 μL) to dissolve the purple MTT formazan crystals. The absorbance of each well was determined at 490 nm on a microplate reader (Flexstation 3, Molecular Devices LLC, Sunnyvale, CA, USA).

[1] = In vivo pharmacokinetics after intravenous administration; conditions: ICR mice
Description: Pharmacokinetics was evaluated in ICR mice (about 20 g). […] A total of 0.1 mL of fresh blood was collected through orbital at appropriate intervals, put into a centrifuge tube pretreated with heparin sodium, and centrifugated (5000 rpm, 10 min). A total of 100 µL acetonitrile was added to 50 µL of supernatant collected to extract PTX and precipitate protein in serum, and the mixture was centrifugated for another 10 min (1200 rpm). The amounts of PTX in the collected supernatant were determined by HPLC (acetonitrile:water = 50:50 (v:v); flow rate: 1.0 mL/min; wavelength: 227 nm).

[2] = Body weight of tumor-bearing mice during treatment; assay type: in vivo, BALB/c nude mice; conditions: 7.5 mg/kg i.v. on days 0, 3 and 6
Description: (§1) BALB/c nude mice (4–5 weeks old) were used for the evaluation of the antitumor activities of the nanotherapies. The human prostate cancer cell line DU145 was grown to 80% confluence in 90 mm tissue culture dishes. After cell harvesting, the cells were resuspended in PBS at 4 °C to reach a final concentration of 1.5 × 10^7 cells/mL. The right flanks of the BALB/c nude mice were subcutaneously injected with 200 μL of a cell suspension containing 3 × 10^6 cells. At 4 days after implantation, the tumors reached approximately 150 mm^3 in volume, and then the mice were randomly divided into four groups (n = 6 mice per group). Mice bearing DU145 tumor xenografts were injected intravenously with PBS, Taxol, PTX/PBA NPs, and PTX/mPEG-PAL NPs at 7.5 mg/kg three times on days 0, 3, and 6. Tumor volumes and body weights were monitored and recorded once every three days. The lengths (L) and widths (W) of the tumors were measured with calipers, and the tumor volume was calculated by the following formula: V = (L × W^2)/2, where W is shorter than L.

DU145 tumor xenografts = assay: TUNEL assay of the tumors; assay type: in vivo, BALB/c nude mice; conditions: compared with PBS; tumors excised at 15 d
Source text: The tumor tissue and other organs from the sacrificed mice were excised at 15 d of the treatments with various drugs. After being fixed in n 4% formaldehyde, dehydrated with ethanol, and embedded in paraffin, the tumor tissue and organs were further sectioned into 5 μm slices for hematoxylin and eosin (H&E) staining and the terminal deoxynucleotidyl transferase-mediated dUTP nick-end labeling (TUNEL) staining assay. The H&E-stained tissues and TUNEL-stained tissues were imaged by fluorescence microscopy (NIKON ECLIPSE C1, Tokyo, Japan).

human DU145 tumor model = conditions: 7.5 mg/kg i.v. on days 0, 3 and 6
Description: as §1

Molecule `CC(=O)O[C@H]1C(=O)[C@@]2(C)[C@H]([C@H](OC(=O)c3ccccc3)[C@]3(O)C[C@H](OC(=O)[C@H](O)[C@@H](NC(=O)c4ccccc4)c4ccccc4)C(C)=C1C3(C)C)[C@]1(OC(C)=O)CO[C@@H]1C[C@@H]2O` [Taxol, Paclitaxel] has an IC50 (DU145 cells) of 3.04 nM, a t1/2α [1] of 3.24 min and an AUC(0-inf) ([1]; mouse, plasma) of 85.4 ng·h/mL. For the same molecule, the AUC(0-t) ([1]; mouse, plasma) was 67.5 ng·h/mL, the Cmax ([1]; mouse, plasma) was 94.6 ng/mL and the half-life ([1]; mouse, plasma, read-out: t1/2β (converted)) was 26 min. The “body weight of mice” value [2] was “remained almost unchanged in the first 9 days and then showed a slow uptrend”, the “cell apoptosis rate in tumors (TUNEL)” value (DU145 tumor xenografts) was “dramatic increase” and the “therapeutic efficacy (tumor photograph and weight at the end of treatment)” value (human DU145 tumor model; end of treatment) was “better therapeutic efficacy than PBS”. For the same molecule, the “tumor growth (tumor volume)” value (human DU145 tumor model; first 6 days) was “completely inhibited”.
